The numbers were not newly measured in patent US6440395B1, “Antiplaque mouth rinse” (priority 1992, dated 2002), which cites them from elsewhere.

Each structure is given as a SMILES string.

`Oc1cc(Cl)ccc1Oc1ccc(Cl)cc1Cl` [Triclosan, 2,4,4′-trichloro-2′-hydroxydiphenyl ether]: under “in water at 25° C.”, the solubility in water result is listed as “less than 1 % by weight”.
For the molecule `CCCCCCCCCCCCCCCC[n+]1ccccc1` [CPC, cetyl pyridinium chloride], the “solubility in water and alcohol” value (water and alcohol, stated in words) is “highly soluble”.
